This is an account of results in paper PMC11420944, “Targeted Degradation of Protein Kinase A via a Stapled Peptide PROTAC” (ACS Chemical Biology, 2024).

SMILES strings stand for the structures.

The subject of one assay is phospho VASP. Put plainly: VASP phosphorylation in forskolin-stimulated cells, Western blot. The assay is classed as cell-based. The following applies: MDA-MB-231 cells, 50 µM H89 added 30 min before 50 µM forskolin (30 min); n = 3. Here is the method:
(§1) Next, we sought to assess whether StIP-TAC could also downregulate PKAc signaling in cells. For this experiment, cells were treated with forskolin to stimulate PKAc activity. Cells were either treated with DMSO, the small molecule PKAc inhibitor H89, StIP-TAC alone, or StIP-TAC with SAINT protein (Figure 4; Figure S7). […] (Figure 4C,D). A known PKA substrate, vasodilator-stimulated phosphoprotein (VASP),[42] was also probed for PKA-mediated phosphorylation (Figure S8).
Cell-based PROTAC activity assays. MDA-MB-231 cells were grown on 6-well tissue culture plates (BD Biosciences). Cells were serum-starved for 24 hours in serum-free RPMI with penicillin/streptomycin, glucose, and L-glutamine. StIP-TAC treatment was prepared with SAINT-Protein reagent according to manufacturer protocol (Synvolux) and added to cells at a final concentration of 10 µM for 5 hours. For phosphorylation studies, cells were additionally stimulated with 50 µM forskolin for 30 minutes before harvesting. For H89-treated cells, 50 μM H89 was added 30 minutes before stimulation with forskolin. For degradation studies, cells were co-treated with 10 μM MG-132 (Selleck Chemicals) alongside StIP-TAC and DMSO treatments for the duration of the 5-hour experiment. […] Cells were harvested in Laemmli sample buffer, boiled for 10 minutes and protein levels were analyzed via western blotting. […]
Biosciences). Western blot fluorescence detection was performed using a LI-COR Odyssey Fc imaging system. […]
Table S1. Peptide and PROTAC sequences, expected and observed masses determined via HPLC-MS. […]
Figure S8: StIP-TAC inhibits phosphorylation of the PKA substrate VASP. […] (B) Densitometric quantification of Western blots […]
reduction in phosphorylated VASP in cells treated with H89 and StIP-TAC with SAINT Protein reagent. Quantification was performed via Li-COR Image Studio. **p=0.010; ***p<0.001; ns, not significant as assessed by one-way ANOVA and Bonferroni’s multiple comparisons test. […]
Background: In western blotting, separated proteins are transferred to a membrane and probed.

The test system of assay [1] is phospho serine/threonine PKA substrate. Put plainly: PKA substrate phosphorylation in forskolin-stimulated cells, Western blot. It is filed as cell-based. The following applies: MDA-MB-231 cells, 50 µM H89 added 30 min before 50 µM forskolin (30 min); n = 3. Here is the method: as §1
Cell-based PROTAC activity assays. MDA-MB-231 cells were grown on 6-well tissue culture plates (BD Biosciences). Cells were serum-starved for 24 hours in serum-free RPMI with penicillin/streptomycin, glucose, and L-glutamine. StIP-TAC treatment was prepared with SAINT-Protein reagent according to manufacturer protocol (Synvolux) and added to cells at a final concentration of 10 µM for 5 hours. For phosphorylation studies, cells were additionally stimulated with 50 µM forskolin for 30 minutes before harvesting. For H89-treated cells, 50 μM H89 was added 30 minutes before stimulation […]
with forskolin. […]
Cells were harvested in Laemmli sample buffer, boiled for 10 minutes and protein levels were analyzed via western blotting. For control experiments, cells were incubated for 5 hours with an equivalent volume of DMSO or SAINT-Protein to the above studies, with or without forskolin stimulation.
To assess PKA degradation, anti-PKAc (1:1000, BD Biosciences) and anti-GAPDH (1:1000, Proteintech) primary antibodies were used. To assess PKA substrate phosphorylation, anti-phospho serine/threonine PKA substrate (1:1000, Cell Signaling […]
Incubation with primary antibodies was followed by incubation with anti-mouse […]
Biosciences). Western blot fluorescence detection was performed using a LI-COR Odyssey Fc imaging system. Data analysis was performed using GraphPad Prism […]
Figure S7: Western blots for PKA substrate phosphorylation. Experiments were performed in triplicate (n=3) in low passage number MDA-MB-231 cells (ATCC HTB-26). Following t = 24 hour starvation in serum-free RPMI media, cells were treated for t = 5 hours with DMSO, SAINT-Protein Lipid reagent alone, 10 µM StIP-TAC, or 10 µM StIP-TAC incubated with SAINT-Protein Lipid reagent per manufacturer instructions. For forskolin-stimulated treatments, cells were incubated for 30 minutes with 50 µM forskolin […]
prior to harvesting in Laemmli sample buffer. For H89-inhibited treatments, cells were incubated for 30 minutes prior to forskolin stimulation with 50 µM H89. Lysates were run via SDS-PAGE and Western blotting performed anti-phospho serine/threonine PKA substrate (1:1000, Cell Signaling Technology) and anti-tubulin (1:1000, Cell Signaling Technology) primary antibodies.

The target of assay [2] is recombinant human DNAJB1-PKAc (Homo sapiens, UniProt P17612+P25685). Put plainly: Fluorescence polarization direct binding of fluorescein-labeled peptides. The following applies: FP, N-terminally FAM-labeled peptide 0.5 nM, DNAJ-PKA-C 3 µM to 30 pM, 20 mM MOPS pH 7, 150 mM NaCl, 0.005% CHAPS, 1 mM ATP, 10 mM MgCl2, room temperature, mean and SD of three independent measurements. Here is the method:
To determine the binding affinity of the truncated library toward the catalytic subunit of PKA, fluorescence polarization (FP) experiments were performed using N-terminally fluorescein-labeled PKI-derived peptides incubated with a range of concentrations of recombinant human DNAJB1-PKAc (Figure 2). The DNAJB1-PKAc chimera is a clinically relevant protein identified in fibrolamellar hepatocellular carcinoma (FL-HCC) patients that combines the chaperonin-binding domain of heat-shock protein 40 (HSP40/DNAJ) with the catalytic (c) subunit of PKA.[34] The active site of the DNAJB1-PKAc protein is identical to native PKAc and retains inhibition by PKI with a nearly identical binding conformation.[35] […] To generate the StIP-TAC, several PEG linker lengths were conjugated with the thalidomide-derived Cereblon Ligand 1 and preliminarily tested (PEG3 to PEG9; Figure S2). All PEG lengths appeared to yield compound activity, and thus the PEG8 linker was chosen to provide greater flexibility to the overall compound. […]
Fluorescence Polarization (FP) Assay. Binding studies for the truncated peptide library to DNAJ-PKA-C were performed according to protocols described previously 21.
FAM-labeled peptides were plated to a final concentration of 0.5 nM after the addition of protein in 384-well microtiter plates. A tenfold dilution series of DNAJ-PKA-C were mixed in peptide wells to have 6 final concentrations ranging from 3 µM to 30 pM.
Assays were performed using FP buffer (20 mM MOPS pH 7, 150 mM NaCl, 0.005% CHAPS, 1 mM ATP, 10 mM MgCl2) at room temperature. All data were obtained using a BioTek Synergy 2 microplate reader using the following settings: excitation/emission/dichroic filters: 485-20 nm/528-20 nm/510 nm, 50 flashes per well, settling time 0.1 s. Non-linear regression (sigmoidal dose-response) was performed using GraphPad Prism 6.01 on FP signals plotted against log-scale protein concentrations to determine equilibrium dissociation constants (KD). Data analysis was performed using GraphPad Prism (Dotmatics). […]

Take `O=S(=O)(NCCNC/C=C/c1ccc(Br)cc1)c1cccc2cnccc12` [H89, reference compound]: the “phosphorylated VASP” value with phospho VASP was “statistically significant reduction”. The “total PKA substrate phosphorylation” value in assay [1] is listed as “statistically significant reduction”.

On to `CC[C@H](C)[C@H](NC(=O)[C@H](C)NC(=O)[C@H](CC(N)=O)NC(=O)[C@H](CCCNC(=N)N)NC(=O)[C@H](CCCNC(=N)N)NC(=O)CNC(=O)[C@@H](NC(=O)[C@H](CCCNC(=N)N)NC(=O)CNC(=O)[C@H](CO)NC(=O)[C@H](C)NC(=O)[C@@H](NC(=O)[C@H](Cc1ccccc1)NC(=O)[C@H](CC(=O)O)NC(=O)[C@]1(C)CCCC=CCCC[C@](C)(NC(=O)COCCOCCOCCNC(=O)c2ccc3c(c2)C(=O)OC32c3ccc(O)cc3Oc3cc(O)ccc32)C(=O)N[C@@H]([C@@H](C)O)C(=O)N[C@@H]([C@@H](C)O)C(=O)N[C@@H](Cc2ccc(O)cc2)C(=O)N1)[C@@H](C)CC)[C@@H](C)O)C(N)=O` [StIP-3], for which the Kd was 3 to 4 nM in assay [2] and 3.5 ± 0.1 nM in assay [2] (SD).

For `CC[C@H](C)[C@H](NC(=O)[C@H](C)NC(=O)[C@H](CC(N)=O)NC(=O)[C@H](CCCNC(=N)N)NC(=O)[C@H](CCCNC(=N)N)NC(=O)CNC(=O)[C@@H](NC(=O)[C@H](CCCNC(=N)N)NC(=O)CNC(=O)[C@H](CO)NC(=O)[C@H](C)NC(=O)[C@@H](NC(=O)[C@H](Cc1ccccc1)NC(=O)[C@H](CC(=O)O)NC(=O)[C@]1(C)CCCC=CCCC[C@](C)(NC(=O)[C@@H](NC(=O)[C@H](CC(=O)O)NC(=O)[C@@H](NC(=O)COCCOCCOCCNC(=O)c2ccc3c(c2)C(=O)OC32c3ccc(O)cc3Oc3cc(O)ccc32)[C@@H](C)O)C(C)C)C(=O)N[C@@H]([C@@H](C)O)C(=O)N[C@@H]([C@@H](C)O)C(=O)N[C@@H](Cc2ccc(O)cc2)C(=O)N1)[C@@H](C)CC)[C@@H](C)O)C(N)=O` [StIP-4], the Kd in assay [2] was 3 to 4 nM; in assay [2] (SD) it was 3.2 ± 0.1 nM.

In general, Kd refers to the concentration at which binding is half-saturated.
